Results published in the supplement of paper PMC10307832.

What was measured:
Assay in all cases: relative viability (nuclei count vs DMSO), 5 days (fraction); higher = more cells survive
MK-2206 + Lapatinib = compound: NC1(c2ccc(-c3nc4ccn5c(=O)[nH]nc5c4cc3-c3ccccc3)cc2)CCC1 [MK-2206] + CS(=O)(=O)CCNCc1ccc(-c2ccc3ncnc(Nc4ccc(OCc5cccc(F)c5)c(Cl)c4)c3c2)o1 [Lapatinib] (partner 2 µM)
Procedure, shortened: (§1)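 Relative viability divides the nuclei count in treated wells by that in vehicle wells. Lung cancer cell lines were seeded in 1536-well plates, dosed by pin tool the next day, and fixed and stained after 5 days in one step with final 0.05% Triton X-100, 1% formaldehyde and 1 ug/ml Hoechst. Dosing was a single drug or a fixed anchor-drug dose plus five library-drug doses (not always all listed) in √10 steps, and values are medians of duplicate plates imaged at 4×.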

MK-2206 + Vorinostat = compound: NC1(c2ccc(-c3nc4ccn5c(=O)[nH]nc5c4cc3-c3ccccc3)cc2)CCC1 [MK-2206] + O=C(CCCCCCC(=O)Nc1ccccc1)NO [Vorinostat] (partner 1 µM)
Procedure, shortened: as §1

MK-2206 + Foretinib = compound: NC1(c2ccc(-c3nc4ccn5c(=O)[nH]nc5c4cc3-c3ccccc3)cc2)CCC1 [MK-2206] + COc1cc2c(Oc3ccc(NC(=O)C4(C(=O)Nc5ccc(F)cc5)CC4)cc3F)ccnc2cc1OCCCN1CCOCC1 [Foretinib] (partner 0.25 µM)
Procedure, shortened: as §1

MK-2206 + Olaparib = compound: NC1(c2ccc(-c3nc4ccn5c(=O)[nH]nc5c4cc3-c3ccccc3)cc2)CCC1 [MK-2206] + O=C(c1cc(Cc2n[nH]c(=O)c3ccccc23)ccc1F)N1CCN(C(=O)C2CC2)CC1 [Olaparib] (partner 8 µM)
Procedure, shortened: as §1

Pictilisib + Luminespib = compound: CS(=O)(=O)N1CCN(Cc2cc3nc(-c4cccc5[nH]ncc45)nc(N4CCOCC4)c3s2)CC1 [Pictilisib] + CCNC(=O)c1noc(-c2cc(C(C)C)c(O)cc2O)c1-c1ccc(CN2CCOCC2)cc1 [Luminespib] (partner 0.01 µM)
Procedure, shortened: as §1

| Cell Line | relative viability (MK-2206 + Lapatinib; first compound 0.01 µM) | relative viability (MK-2206 + Lapatinib; first compound 0.03162 µM) | relative viability (MK-2206 + Lapatinib; first compound 0.3162 µM) | relative viability (MK-2206 + Lapatinib; first compound 1 µM) | relative viability (MK-2206 + Vorinostat; first compound 0.01 µM) | relative viability (MK-2206 + Vorinostat; first compound 0.03162 µM) | relative viability (MK-2206 + Vorinostat; first compound 0.3162 µM) | relative viability (MK-2206 + Vorinostat; first compound 1 µM) | relative viability (MK-2206 + Foretinib; first compound 0.01 µM) | relative viability (MK-2206 + Foretinib; first compound 0.03162 µM) | relative viability (MK-2206 + Foretinib; first compound 0.3162 µM) | relative viability (MK-2206 + Foretinib; first compound 1 µM) | relative viability (MK-2206 + Olaparib; first compound 0.01 µM) | relative viability (MK-2206 + Olaparib; first compound 0.03162 µM) | relative viability (MK-2206 + Olaparib; first compound 0.3162 µM) | relative viability (MK-2206 + Olaparib; first compound 1 µM) | relative viability (Pictilisib + Luminespib; first compound 0.02 µM) | relative viability (Pictilisib + Luminespib; first compound 0.06325 µM) | relative viability (Pictilisib + Luminespib; first compound 0.6325 µM) | relative viability (Pictilisib + Luminespib; first compound 2 µM) |
| --- | --- | --- | --- | --- | --- | --- | --- | --- | --- | --- | --- | --- | --- | --- | --- | --- | --- | --- | --- | --- |
| NCI-H2126 | 0.803 | 0.739 | 0.75 | 0.737 | 0.718 | 0.789 | 0.608 | 0.623 | 1.14 | 1.17 | 1.18 | 1.13 | 0.932 | 1.01 | 0.87 | 0.925 | 0.847 | 0.852 | 0.646 | 0.421 |
| 201T | 0.988 | 1.12 | 1.02 | 1.12 | 0.963 | 1.06 | 0.988 | 1.09 | 1.1 | 1.2 | 1.13 | 1.1 | 0.825 | 0.857 | 0.858 | 0.856 | 1.04 | 1 | 0.869 | 0.576 |
| NCI-H358 | 0.47 | 0.41 | 0.394 | 0.376 | 0.659 | 0.697 | 0.646 | 0.729 | 0.767 | 0.841 | 0.661 | 0.685 | 0.61 | 0.641 | 0.541 | 0.56 | 0.382 | 0.348 | 0.161 | 0.146 |
| SK-LU-1 | 0.91 | 0.861 | 0.822 | 0.967 | 0.818 | 0.778 | 0.823 | 0.735 | 0.844 | 0.776 | 0.814 | 0.791 | 0.47 | 0.457 | 0.47 | 0.371 | 0.227 | 0.193 | 0.168 | 0.178 |
| H3255 | 0.268 | 0.224 | 0.18 | 0.192 | 0.779 | 0.803 | 0.724 | 0.617 | 0.866 | 0.971 | 0.731 | 0.746 | 0.539 | 0.58 | 0.538 | 0.518 | 0.922 | 0.796 | 0.688 | 0.666 |
| LOU-NH91 | 0.786 | 0.739 | 0.603 | 0.584 | 0.938 | 0.933 | 0.887 | 0.826 | 0.984 | 0.958 | 0.927 | 0.917 | 0.901 | 0.98 | 0.91 | 0.847 | 0.347 | 0.338 | 0.321 | 0.274 |
